Measured values: patent US20060069132A1, “Azolecarboxamide herbicides” (priority 2004, published 2006)
Read-outs that look alike come from different tables or passages of the source.

Experiments:
[1] = tested on: redroot pigweed; assay: Test A pre-/postemergence herbicide test; assay type: in vivo, Amaranthus retroflexus; conditions: for pest or weed control at 500 g/ha / pest or weed control at 2000 g/ha: Amaranthus retroflexus, 240 h
How it was run: (§1)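 Pre: seeded sandy loam, directed soil spray, compound in non-phytotoxic solvent + surfactant. Post: 1–2-leaf plants (2–10 cm), sprayed to runoff. Greenhouse ~10 d; visual injury vs untreated, 0–100 scale.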

[2] = tested on: barnyardgrass; assay: Test C flooded paddy test; assay type: in vivo, Echinochloa crus-galli
How it was run: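 Postemergence sprays were applied to plants 2 to 18 cm tall (1- to 4-leaf stage); in the flooded paddy test, barnyardgrass was grown to the 2-leaf stage. After 12 to 14 days in a greenhouse, injury was visually rated against untreated controls on a 0–100 scale (100 = complete control).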

[3] = tested on: ducksalad; assay: Test C flooded paddy test; assay type: in vivo, Heteranthera limosa
[4] = tested on: velvetleaf; assay: Test A pre-/postemergence herbicide test; assay type: in vivo, Abutilon theophrasti
How it was run: as §1

[5] = tested on: barnyardgrass; assay: Test A pre-/postemergence herbicide test; assay type: in vivo, Echinochloa crus-galli; conditions: for pest or weed control at 500 g/ha / pest or weed control at 2000 g/ha: Echinochloa crus-galli, 240 h
How it was run: as §1

[6] = tested on: rice; assay: Test C flooded paddy test; assay type: in vivo, Oryza sativa
How it was run: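 Plants were grown to the 1- to 4-leaf stage (2–18 cm) and then treated postemergence, or grown to the 2-leaf stage for the flooded paddy test. They were held in a greenhouse for 12 to 14 days and then scored by eye against controls, where 0 is no effect and 100 is complete control.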

[7] = Postemergence, 500 g ai/ha, 0 to 100 scale, 0 no effect, 100 complete control
[8] = Postemergence, 2000 g ai/ha, 0 to 100 scale, 0 no effect, 100 complete control
[9] = Preemergence, 500 g ai/ha, visual rating, 0 to 100 scale (0 no effect, 100 complete control)
[10] = Preemergence, 2000 g ai/ha, 0 to 100 scale, 0 no effect, 100 complete control
[11] = 62 g ai/ha, scale 0 to 100 (0 no effect, 100 complete control)
[12] = 125 g ai/ha, scale of 0 to 100, 0 is no effect, 100 is complete control
[13] = 250 g ai/ha, scale of 0 to 100, 0 is no effect, 100 is complete control
[14] = 500 g ai/ha, visual rating after 12 to 14 days, scale 0 to 100 (0 no effect, 100 complete control)
[15] = Preemergence, 2000 g ai/ha, visual rating, 0 to 100 scale (0 no effect, 100 complete control)
[16] = preemergence, 500 g ai/ha, visual injury, 0 to 100 scale (0 no effect, 100 complete control)
[17] = 125 g ai/ha, scale 0 to 100 (0 no effect, 100 complete control)

## CCOC(=O)c1cccc(NC(=O)c2cc(C(C)(C)C)nn2CCF)c1 [Compound 79]
[1]; [7]
  Plant response rating, Pigweed: 95
[1]; [8]
  Plant response rating, Pigweed: 85
[1]; [9]
  Pigweed plant response rating: 45
[1]; [10]
  Pigweed plant response rating: 90
[2]; [11]
  Barnyardgrass plant response rating: 10
[2]; [12]
  Barnyardgrass plant response rating: 25
[2]; [13]
  Barnyardgrass plant response rating: 25
[2]; [14]
  Plant response rating, Barnyardgrass: 80
[3]; [11]
  Ducksalad plant response rating: 0
[3]; [12]
  Ducksalad plant response rating: 0
[3]; [13]
  Ducksalad plant response rating: 15
[3]; [14]
  Plant response rating, Ducksalad: 55
[4]; [8]
  Plant response rating, Velvetleaf: 50
[4]; [9]
  Velvetleaf plant response rating: 20
[4]; [15]
  Velvetleaf plant response rating: 70
[5]; [7]
  Plant response rating, Barnyardgrass: 40
[5]; [8]
  Plant response rating, Barnyardgrass: 40
[5]; [9]
  Barnyardgrass plant response rating: 20
[5]; [10]
  Barnyardgrass plant response rating: 35
[6]; [11]
  Rice plant response rating: 20
[6]; [12]
  Rice plant response rating: 20
[6]; [13]
  Rice plant response rating: 20
[6]; [14]
  Plant response rating, Rice: 30

## CCn1nc(C(C)(C)C)cc1C(=O)Nc1cccc(C(=O)NCC(F)(F)F)c1 [Compound 43, 3-(1,1-dimethylethyl)-1-ethyl-N-[3-[[(2,2,2-trifluoroethyl)amino]carbonyl]-phenyl]-1H-pyrazole-5-carboxamide]
[1]; post-emergence, Postemergence, 500 g ai/ha, 0 to 100 scale, 0 no effect, 100 complete control, read-out: Plant response rating, Pigweed
  pest or weed control at 500 g/ha: 100%
[1]; post-emergence, Postemergence, 2000 g ai/ha, 0 to 100 scale, 0 no effect, 100 complete control, read-out: Plant response rating, Pigweed
  pest or weed control at 2000 g/ha: 100%
[1]; pre-emergence, Preemergence, 500 g ai/ha, visual rating, 0 to 100 scale (0 no effect, 100 complete control), read-out: Pigweed plant response rating
  pest or weed control at 500 g/ha: 100%
[1]; pre-emergence, Preemergence, 2000 g ai/ha, 0 to 100 scale, 0 no effect, 100 complete control, read-out: Pigweed plant response rating
  pest or weed control at 2000 g/ha: 100%
[2]; Echinochloa crus-galli, 62 g ai/ha, scale 0 to 100 (0 no effect, 100 complete control), read-out: Barnyardgrass plant response rating
  pest or weed control at 62 g/ha: 0%
[2]; Echinochloa crus-galli, 125 g ai/ha, scale of 0 to 100, 0 is no effect, 100 is complete control, read-out: Barnyardgrass plant response rating
  pest or weed control at 125 g/ha: 0%
[2]; Echinochloa crus-galli, 250 g ai/ha, visual rating after 12 to 14 days, scale 0 to 100 (0 no effect, 100 complete control), read-out: Plant response rating, Barnyardgrass
  pest or weed control at 250 g/ha: 40%
[2]; Echinochloa crus-galli, 500 g ai/ha, visual rating after 12 to 14 days, scale 0 to 100 (0 no effect, 100 complete control), read-out: Plant response rating, Barnyardgrass
  pest or weed control at 500 g/ha: 50%
[3]; Heteranthera limosa, 62 g ai/ha, scale 0 to 100 (0 no effect, 100 complete control), read-out: Ducksalad plant response rating
  pest or weed control at 62 g/ha: 0%
[3]; Heteranthera limosa, 125 g ai/ha, scale of 0 to 100, 0 is no effect, 100 is complete control, read-out: Ducksalad plant response rating
  pest or weed control at 125 g/ha: 0%
[3]; Heteranthera limosa, 250 g ai/ha, visual rating after 12 to 14 days, scale 0 to 100 (0 no effect, 100 complete control), read-out: Plant response rating, Ducksalad
  pest or weed control at 250 g/ha: 60%
[3]; Heteranthera limosa, 500 g ai/ha, visual rating after 12 to 14 days, scale 0 to 100 (0 no effect, 100 complete control), read-out: Plant response rating, Ducksalad
  pest or weed control at 500 g/ha: 70%
[4]; Abutilon theophrasti, post-emergence, 240 h, Postemergence, 2000 g ai/ha, 0 to 100 scale, 0 no effect, 100 complete control, read-out: Plant response rating, Velvetleaf
  pest or weed control at 2000 g/ha: 30%
[4]; Abutilon theophrasti, pre-emergence, 240 h, Preemergence, 500 g ai/ha, visual rating, 0 to 100 scale (0 no effect, 100 complete control), read-out: Velvetleaf plant response rating
  pest or weed control at 500 g/ha: 5%
[4]; Abutilon theophrasti, pre-emergence, 240 h, Preemergence, 2000 g ai/ha, 0 to 100 scale, 0 no effect, 100 complete control, read-out: Velvetleaf plant response rating
  pest or weed control at 2000 g/ha: 60%
[5]; post-emergence, Postemergence, 500 g ai/ha, 0 to 100 scale, 0 no effect, 100 complete control, read-out: Plant response rating, Barnyardgrass
  pest or weed control at 500 g/ha: 90%
[5]; post-emergence, Postemergence, 2000 g ai/ha, 0 to 100 scale, 0 no effect, 100 complete control, read-out: Plant response rating, Barnyardgrass
  pest or weed control at 2000 g/ha: 100%
[5]; pre-emergence, Preemergence, 500 g ai/ha, visual rating, 0 to 100 scale (0 no effect, 100 complete control), read-out: Barnyardgrass plant response rating
  pest or weed control at 500 g/ha: 60%
[5]; pre-emergence, Preemergence, 2000 g ai/ha, 0 to 100 scale, 0 no effect, 100 complete control, read-out: Barnyardgrass plant response rating
  pest or weed control at 2000 g/ha: 90%
[6]; Oryza sativa, 62 g ai/ha, scale 0 to 100 (0 no effect, 100 complete control), read-out: Rice plant response rating
  plant injury at 62 g/ha: 0%
[6]; Oryza sativa, 125 g ai/ha, scale of 0 to 100, 0 is no effect, 100 is complete control, read-out: Rice plant response rating
  plant injury at 125 g/ha: 0%
[6]; Oryza sativa, 250 g ai/ha, visual rating after 12 to 14 days, scale 0 to 100 (0 no effect, 100 complete control), read-out: Plant response rating, Rice
  plant injury at 250 g/ha: 20%
[6]; Oryza sativa, 500 g ai/ha, visual rating after 12 to 14 days, scale 0 to 100 (0 no effect, 100 complete control), read-out: Plant response rating, Rice
  plant injury at 500 g/ha: 20%

## CCn1nc(C(C)(C)C)cc1C(=O)Nc1cccc(C(=O)NOC)c1 [Compound 67]
[1]; [7]
  Plant response rating, Pigweed: 50
[1]; [8]
  Plant response rating, Pigweed: 85
[1]; [9]
  Pigweed plant response rating: 0
[1]; [10]
  Pigweed plant response rating: 90
[2]; [11]
  Barnyardgrass plant response rating: 0
[2]; [12]
  Barnyardgrass plant response rating: 0
[2]; [13]
  Barnyardgrass plant response rating: 10
[2]; [14]
  Plant response rating, Barnyardgrass: 25
[3]; [11]
  Ducksalad plant response rating: 30
[3]; [12]
  Ducksalad plant response rating: 30
[3]; [13]
  Ducksalad plant response rating: 40
[3]; [14]
  Plant response rating, Ducksalad: 40
[4]; [8]
  Plant response rating, Velvetleaf: 15
[4]; [9]
  Velvetleaf plant response rating: 30
[4]; [15]
  Velvetleaf plant response rating: 75
[5]; [7]
  Plant response rating, Barnyardgrass: 0
[5]; [8]
  Plant response rating, Barnyardgrass: 25
[5]; [9]
  Barnyardgrass plant response rating: 0
[5]; [10]
  Barnyardgrass plant response rating: 30
[6]; [11]
  Rice plant response rating: 0
[6]; [12]
  Rice plant response rating: 0
[6]; [13]
  Rice plant response rating: 0
[6]; [14]
  Plant response rating, Rice: 30

## CCn1nc(C(C)(C)C)cc1C(=O)Nc1cccc(C(=O)N2CC=CC2)c1 [Compound 286]
[1]; [7]
  Pigweed plant response rating: 55
[1]; [8]
  Plant response rating, Pigweed: 85
[1]; [15]
  Pigweed plant response rating: 95
[1]; [16]
  Pigweed plant response rating: 85
[2]; [11]
  Barnyardgrass plant response rating: 40
[2]; [17]
  Barnyardgrass plant response rating: 55
[2]; [13]
  Barnyardgrass plant response rating: 70
[2]; [14]
  Plant response rating, Barnyardgrass: 80
[3]; 62 g ai/ha, scale 0 to 100
  Ducksalad plant response rating: 50
[3]; [17]
  Ducksalad plant response rating: 75
[3]; [13]
  Ducksalad plant response rating: 90
[3]; [14]
  Plant response rating, Ducksalad: 90
[4]; [7]
  Velvetleaf plant response rating: 30
[4]; [8]
  Plant response rating, Velvetleaf: 50
[4]; [15]
  Velvetleaf plant response rating: 70
[4]; [16]
  Velvetleaf plant response rating: 20
[5]; [7]
  Barnyardgrass plant response rating: 60
[5]; [8]
  Plant response rating, Barnyardgrass: 80
[5]; [15]
  Barnyardgrass plant response rating: 85
[5]; [16]
  Barnyardgrass plant response rating: 75
[6]; 62 g ai/ha, scale 0 to 100
  Rice plant response rating: 45
[6]; [17]
  Rice plant response rating: 55
[6]; [13]
  Rice plant response rating: 65
[6]; [14]
  Plant response rating, Rice: 75

## C=CCn1nc(C(C)(C)C)cc1C(=O)Nc1cccc(C(C)=NO)c1 [Compound 117]
[1]; [7]
  Pigweed plant response rating: 80
[1]; [8]
  Plant response rating, Pigweed: 95
[1]; [9]
  Pigweed plant response rating: 55
[1]; [15]
  Pigweed plant response rating: 90
[2]; [11]
  Barnyardgrass plant response rating: 10
[2]; [12]
  Barnyardgrass plant response rating: 20
[2]; [13]
  Barnyardgrass plant response rating: 50
[2]; [14]
  Plant response rating, Barnyardgrass: 50
[3]; [11]
  Ducksalad plant response rating: 0
[3]; [12]
  Ducksalad plant response rating: 0
[3]; [13]
  Ducksalad plant response rating: 0
[3]; [14]
  Plant response rating, Ducksalad: 60
[4]; [7]
  Velvetleaf plant response rating: 50
[4]; [8]
  Plant response rating, Velvetleaf: 65
[4]; [9]
  Velvetleaf plant response rating: 50
[4]; [15]
  Velvetleaf plant response rating: 65
[5]; [7]
  Barnyardgrass plant response rating: 45
[5]; [8]
  Plant response rating, Barnyardgrass: 75
[5]; [9]
  Barnyardgrass plant response rating: 30
[5]; [15]
  Barnyardgrass plant response rating: 70
[6]; [11]
  Rice plant response rating: 0
[6]; [12]
  Rice plant response rating: 15
[6]; [13]
  Rice plant response rating: 45
[6]; [14]
  Plant response rating, Rice: 65
